The target of data set [1] is Protein farnesyltransferase (Homo sapiens) (UniProt P49354+P49356). The data set is described as follows: Activity as substrate for recombinant mammalian Farnesyltransferase expressed in baculovirus; activity expressed as Vmax relative to the Vmax of E,E-FPP.
Data set [2] deals with CC(C)=CCC/C(C)=C\CC/C(C)=C/COP(=O)(O)OP(=O)(O)O. Briefly: (§1) Kinetic constant for recombinant mammalian Farnesyltransferase expressed in baculovirus by fluorescence assay.
Data set [3] concerns CC(C)=CCC/C(C)=C/CC/C(C)=C\CC/C(C)=C/COP(=O)(O)OP(=O)(O)O. Described as §1.
Data set [4] relates to CC(C)=CCC/C(C)=C/CC/C(C)=C/CC/C(C)=C\COP(=O)(O)OP(=O)(O)O. The data set is described as §1.
Data set [5] has as its system CC(C)=CCC/C(C)=C/CC/C(C)=C\COP(=O)(O)OP(=O)(O)O. The data set is described as §1.

We go through five molecules from ChEMBL document CHEMBL1134716, “Synthesis and evaluation of GGPP geometric isomers: divergent substrate specificities of FTase and GGTase I” (Bioorg Med Chem Lett, 2001).

`CC(C)=CCC/C(C)=C/CC/C(C)=C\COP(=O)(O)OP(=O)(O)O`: the Krel in data set [1] turned out to be 0.47. As for `CC(C)=CCC/C(C)=C/CC/C(C)=C/CC/C(C)=C\COP(=O)(O)OP(=O)(O)O`, the Krel in data set [1] is 0.67.

`CC(C)=CCC/C(C)=C\CC/C(C)=C/COP(=O)(O)OP(=O)(O)O`: the Krel in data set [1] worked out at 0.41. As to “Protein farnesyltransferase (Homo sapiens) (from UniProt P49354+P49356)”, the Km is 0.136 µM in data set [2], 0.481 µM in data set [3], 0.021 µM in data set [4] and 0.225 µM in data set [5]. Regarding `CC(C)=CCC/C(C)=C/CC/C(C)=C\CC/C(C)=C/COP(=O)(O)OP(=O)(O)O`, the Krel in data set [1] turned out to be 0.4.

Usually Km stands for the concentration of substrate that gives half-maximal velocity.
